The assay concerns the target C-Raf FL (full length CRAF with Y340E and Y341E activating mutations, co-expressed with h14-3-3 zeta) (Homo sapiens (Human), UniProt P04049, Y340E/Y341E). The assay can be described thus: In vitro Raf activity determination, AlphaScreen p-MEK readout, c-Raf (C-Raf FL). Type of assay: biochemical. The conditions noted are these: c-Raf approximately 4 nM, ATP 1 μM, pre-incubation 60 minutes, reaction 1 hour. The procedure, abridged:
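Phosphorylation of kinase-dead biotinylated MEK1 (~10 nM) by C-Raf FL (~4 nM) read by AlphaScreen luminescence with anti-phospho-MEK1/2 after EDTA stop. ATP was 1 μM, with a 1 h reaction at room temperature. Compounds were pre-incubated with enzyme and substrate for 60 min in Tris/MgCl2 buffer, pH 7.5.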
Background: In Alpha technology, singlet oxygen from a donor bead excites a nearby acceptor bead.

The source of these data is patent US10377770B2 (Novartis AG, priority 2015, dated 2019).

C-Raf FL (full length CRAF with Y340E and Y341E activating mutations, co-expressed with h14-3-3 zeta), sequence (P04049 whole entry Y340E/Y341E): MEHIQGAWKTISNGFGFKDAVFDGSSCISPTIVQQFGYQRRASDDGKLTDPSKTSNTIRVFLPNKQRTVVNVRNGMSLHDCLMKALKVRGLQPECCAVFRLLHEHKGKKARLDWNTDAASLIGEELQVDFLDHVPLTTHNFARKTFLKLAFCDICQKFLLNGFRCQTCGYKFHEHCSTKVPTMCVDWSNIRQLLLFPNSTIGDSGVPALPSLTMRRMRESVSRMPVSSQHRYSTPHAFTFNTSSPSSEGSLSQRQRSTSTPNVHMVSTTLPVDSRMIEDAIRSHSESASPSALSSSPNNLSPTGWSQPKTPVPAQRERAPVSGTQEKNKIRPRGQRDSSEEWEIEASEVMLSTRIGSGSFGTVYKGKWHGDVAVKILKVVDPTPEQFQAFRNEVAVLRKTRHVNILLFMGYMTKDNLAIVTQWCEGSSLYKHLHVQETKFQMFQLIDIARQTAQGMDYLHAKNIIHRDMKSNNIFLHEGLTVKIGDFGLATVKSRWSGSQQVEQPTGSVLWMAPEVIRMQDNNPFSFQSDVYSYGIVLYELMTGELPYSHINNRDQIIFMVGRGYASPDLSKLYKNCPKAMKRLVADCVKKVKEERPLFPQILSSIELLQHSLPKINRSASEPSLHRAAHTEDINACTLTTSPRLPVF
C-Raf FL (full length CRAF with Y340E and Y341E activating mutations, co-expressed with h14-3-3 zeta), sequence (P63104 whole entry partner): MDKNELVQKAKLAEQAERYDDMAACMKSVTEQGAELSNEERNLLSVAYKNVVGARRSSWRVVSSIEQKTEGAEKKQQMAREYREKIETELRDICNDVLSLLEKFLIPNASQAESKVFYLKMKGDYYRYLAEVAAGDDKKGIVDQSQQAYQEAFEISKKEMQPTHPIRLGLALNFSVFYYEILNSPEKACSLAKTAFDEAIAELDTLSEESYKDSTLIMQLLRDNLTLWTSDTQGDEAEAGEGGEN

On to `Cc1ccc(NC(=O)c2ccnc(C(C)(F)F)c2)cc1-c1cnc2c(c1)[C@@H]1CCOC[C@H]1C(=O)N2CC(F)F` [Example 265, 2-(1,1-difluoroethyl)-N-(3-((4aS, 10bR)-6-(2,2-difluoroethyl)-5-oxo-2,4,4a,5,6,10b-hexahydro-1H-pyrano[3,4-c][1,8]naphthyridin-9-yl)4-methylphenyl) isonicotinamide], for which half-maximal inhibition (IC50) required 100 pM.

`CCN1c2ncc(-c3cc(NC(=O)c4ccnc(C(F)(F)F)c4)ccc3C)cc2[C@@H]2CCOC[C@H]2C12CC2` [Example 361, N-(3-((4a′R,10b′R)-6′-ethyl-1′,2′,4′,4a′,6′,10b′-hexahydrospiro[cyclopropane-1,5′-pyrano[3,4-c][1,8]naphthyridin]-9′-yl)-4-methylphenyl)-2-(trifluoromethyl)isonicotinamide] displayed an IC50 of 900 pM.

Take `Cc1ccc(NC(=O)c2cc(Cl)nc(C(F)(F)F)c2)cc1-c1ccc2c(c1)N1CCOC[C@H]1[C@](F)(CO)C2` [Example 391, 2-chloro-N-(3-((4aS,5S)-5-fluoro-5-(hydroxymethyl)-1,2,4,4a,5,6-hexahydro-[1,4]oxazino[4,3-a]quinolin-9-yl)-4-methylphenyl)-6-(trifluoromethyl)isonicotinamide]: the IC50 worked out at 6800 pM.

`CCN1C[C@@H]2COCC[C@H]2c2cc(-c3cc(NC(=O)c4ccnc(C(F)(F)F)c4)ccc3C)cnc21` [Example 291, N-(3-((4aR, 10bR)-6-ethyl-2,4,4a,5,6,10b-hexahydro-1H-pyrano[3,4-c][1,8]naphthyridin-9-yl)-4-methylpheny)-2-(trifluoromethyl) isonicotinamide] yielded an IC50 of 100 pM.

`Cc1ccc(NC(=O)c2ccnc(C(C)(F)F)c2)cc1-c1cc(F)c2c(c1)N1CCOC[C@H]1[C@](F)(CO)C2` [Example 420, N-(3-((4aS,5S)-5,7-difluoro-5-(hydroxymethyl)-1,2,4,4a,5,6-hexahydro-[1,4]oxazino[4,3-a]quinolin-9-yl)-4-methylphenyl)-2-(1,1-difluoroethyl)isonicotinamide]: it took 600 pM to reach half-maximal inhibition (IC50).

`CCN1C(=O)[C@@H]2COCC[C@H]2c2cc(-c3cc(NC(=O)c4ccnc(C(F)(F)F)c4F)ccc3C)cnc21` [Example 253, N-(3-((4aS, 10bR)-6-ethyl-5-oxo-2,4,4a,5,6,10b-hexahydro-1H-pyrano[3,4-c][1,8]naphthyridin 9-yl)-4-methylphenyl)-3-fluoro-2-(trifluoromethyl) isonicotinamide] returned an IC50 of 3200 pM. Compared with the last compound, the IC50 is about 5.3-fold higher.

The compound `CCN1C(=O)[C@H]2[C@@H]3COC[C@@H]3[C@H]2c2cc(-c3cc(NC(=O)c4ccnc(C(F)(F)F)c4)ccc3C)cnc21` [Example 270, N-(3-((6aR, 6bR, 9aR, 9bR)-5-ethyl-6-oxo-5,6,6a,6b,7,9,9a,9b-octahydrofuro[3′,4′: 3,4]cyclobuta[1,2-c][1,8]naphthyridin-2-yl)-4-methylphenyl)-2-(trifluoromethyl) isonicotinamide] showed an IC50 of 200 pM.

Regarding `Cc1ccc(NC(=O)c2ccnc(C(F)(F)F)c2)cc1-c1ccc2c(c1)N1CCOCC1C1(COC1)C2` (racemic) [Example 54, (rac)-N-(4-methyl-3-(2,4,4a,6-tetrahydro-1H-spiro[[1,4]oxazino[4,3-a]quinoline-5,3′-oxetan]-9-yl)phenyl)-2-(trifluoromethyl)isonicotinamide], the IC50 was determined as 13 pM.

Compound `Cc1ccc(NC(=O)c2ccnc(C(C)(F)F)c2)cc1-c1cc2n(c(=O)c1)CC[C@H]1COCCN21` [Example 411, (S)-2-(1,1-difluoroethyl)-N-(4-methyl-3-(8-oxo-1,2,4,4a,5,6-hexahydro-8H-pyrido[2′,1′:2,3]pyrimido[6,1-c][1,4]oxazin-10-yl)phenyl)isonicotinamide] yielded an IC50 of 200 pM.

On to `Cc1ccc(NC(=O)c2cncc(C(F)(F)F)c2)cc1-c1cnc2c(c1)C1(C)CCOCCC1C(=O)N2CCO` (single isomer, unassigned) [Example 358, N-(3-((5a,11b-trans)-7-(2-hydroxyethyl)-11b-methyl-6-oxo-1,2,4,5,5a,6,7,11b-octahydrooxepino[4,5-c][1,8]naphthyridin-10-yl)-4-methylphenyl)-5-(trifluoromethyl)nicotinamide], for which half-maximal inhibition (IC50) required 100 pM.

In turn, `Cc1ccc(NC(=O)c2cncc(C(F)(F)F)c2)cc1-c1cnc2c(c1)N1CCOC[C@@H]1C[C@@H]2O` [Example 146, N-(3-((4aS,6S)-6-hydroxy-1,2,4,4a,5,6-hexahydro-[1,4]oxazino[4,3-a][1,5]naphthyridin-9-yl)-4-methylphenyl)-5-(trifluoromethyl)nicotinamide] returned an IC50 of 12 pM.

In turn, `Cc1ncc(NC(=O)c2cccc(C(F)(F)F)c2)cc1-c1ccc2c(c1)N1CCOC[C@@H]1[C@@](CO)(CF)C2` [Example 406, N-(5-((4aS,5S)-5-(fluoromethyl)-5-(hydroxymethyl)-1,2,4,4a,5,6-hexahydro-[1,4]oxazino[4,3-a]quinolin-9-yl)-6-methylpyridin-3-yl)-3-(trifluoromethyl)benzamide] registered an IC50 of 400 pM. Compared with the last compound, the IC50 is about 33-fold higher.

On to `CCN1C(=O)OC2COCCC2c2cc(-c3cc(NC(=O)c4cccc(C(F)(F)F)c4)cnc3C)cnc21` [Example 298, N-(5-((4aS,11bR- cis)-7-ethyl-6-oxo-2,4,4a,6,7,11b-hexahydro-1H-pyrano[4,3-f]pyrido[2,3-d][1,3]oxazepin-10-yl)-6-methylpyridin-3-yl)-3-(trifluoromethyl) benzamide], for which the IC50 came to 300 pM.

For `Cc1ccc(NC(=O)c2ccnc(C(C)(C)F)c2)cc1-c1cc(F)c2c(c1)N1CCOC[C@@H]1[C@@](F)(CO)C2` [Example 427, N-(3-((4aR,5R)-5,7-difluoro-5-(hydroxymethyl)-1,2,4,4a,5,6-hexahydro-[1,4]oxazino[4,3-a]quinolin-9-yl)-4-methylphenyl)-2-(2-fluoropropan-2-yl)isonicotinamide], the IC50 is 600 pM.

`CCN1C(=O)C2CCOCCC2c2cc(-c3cc(NC(=O)c4ccnc(C(F)(F)F)c4)ccc3C)cnc21` (stereo not drawn) [Example 246, N-(3-((5a, 11b-cis)-7-ethyl-6-oxo-1,2,4,5,5a,6,7,11b-octahydrooxepino [4,5-c][1,8]naphthyridin-10-yl)-4-methylphenyl)-2-(trifluoromethyl) isonicotinamide] had an IC50 of 200 pM.

`Cc1ccc(NC(=O)c2ccnc(C(C)(F)F)c2)cc1-c1cnc2c(c1)N1CCOC[C@H]1[C@@H](C(C)(C)O)C2` [Example 453, 2-(1,1-difluoroethyl)-N-(3-((4aR,5S)-5-(2-hydroxypropan-2-yl)-1,2,4,4a,5,6-hexahydro-[1,4]oxazino[4,3-a][1,5]naphthyridin-9-yl)-4-methylphenyl) isonicotinamide]: half-maximal inhibition (IC50) required 700 pM. Against the preceding compound, the IC50 is about 3.5-fold higher.

The compound `Cc1ccc(NC(=O)c2ccnc(C(F)(F)F)c2)cc1-c1ccc2c(c1)N1CCOCC1C(CO)C2` (racemic) [Example 59, (rac)-N-(3-(5-(hydroxymethyl)-1,2,4,4a,5,6-hexahydro-[1,4]oxazino[4,3-a]quinolin-9-yl)-4-methylphenyl)-2-(trifluoromethyl)isonicotinamide] showed an IC50 of 8.9 pM.

Compound `Cc1ccc(NC(=O)c2ccnc(C(F)(F)F)c2)cc1-c1cc2c(nn1)[C@H](O)C[C@@H]1COCCN21` (racemic) [Example 48, (rac)-(trans)-N-(3-(5-hydroxy-5,6,6a,7,9,10-hexahydropyridazino[3′,4′:5,6]pyrido[2,1-c][1,4]oxazin-2-yl)-4-methylphenyl)-2-(trifluoromethyl)isonicotinamide] showed an IC50 of 49 pM. This IC50 is about 5.5-fold higher than that of the compound before.

Turning to `CCN1C(=O)[C@H]2[C@@H]3COC[C@@H]3[C@H]2c2cc(-c3cc(NC(=O)c4ccnc(C(F)(F)F)c4)ccc3C)cnc21` (racemic) [Example 362], the IC50 was 200 pM.

In turn, `Cc1ccc(NC(=O)c2ccnc(C(F)(F)F)c2)cc1-c1cnc2c(c1)N1CCOC[C@@H]1C[C@@H]2O` [Example 103, N-(3-((4aS,6S)-6-hydroxy-1,2,4,4a,5,6-hexahydro-[1,4]oxazino[4,3-a][1,5]naphthyridin-9-yl)-4-methylphenyl)-2-(trifluoromethyl)isonicotinamide] yielded an IC50 of 13 pM.

For the compound `Cc1ccc(NC(=O)c2cncc(C(F)(F)F)c2)cc1-c1cnc2c(c1)N1CCOC[C@H]1CC(=O)N2CCO` [Example 329, (R)-N-(3-(7-(2-hydroxyethyl)-6-oxo-2,4,4a,5,6,7-hexahydro-1H-[1,4]oxazino[4,3-d]pyrido[2,3-b][1,4]diazepin-10-yl)-4-methylphenyl)-5-(trifluoromethyl) nicotinamide], the IC50 came to 200 pM.

In the case of `Cc1ccc(NC(=O)c2cc(C(F)(F)F)ccn2)cc1-c1cnc2c(c1)N1CCOC[C@H]1C[C@@H]2O` (racemic) [Example 147, rac-cis-N-(3-(6-hydroxy-1,2,4,4a,5,6-hexahydro-[1,4]oxazino[4,3-a][1,5]naphthyridin-9-yl)-4-methylphenyl)-4-(trifluoromethyl)picolinamide], the IC50 stood at 2.6 pM.

The compound `Cc1ccc(NC(=O)c2ccnc(C(F)(F)F)c2)cc1-c1cnc2c(c1)N1CCOC[C@@H]1[C@H](C(C)(C)O)C2` [Example 448, N-(3-((4aS,5R)-5-(2-hydroxypropan-2-yl)-1,2,4,4a,5,6-hexahydro-[1,4]oxazino[4,3-a][1,5]naphthyridin-9-yl)-4-methylphenyl)-2-(trifluoromethyl)isonicotinamide] showed an IC50 of 200 pM.

The compound `Cc1ccc(NC(=O)c2ccnc(C(C)(F)F)c2)cc1-c1cnc2c(c1)N1CCOC[C@H]1C[C@H]2O` [Example 108, 2-(1,1-Difluoroethyl)-N-(3-((4aR,6R)-6-hydroxy-1,2,4,4a,5,6-hexahydro-[1,4]oxazino[4,3-a][1,5]naphthyridin-n-9-yl)-4-methylphenyl)isonicotinamide] had an IC50 of 13 pM.

`Cc1ccc(NC(=O)c2ccnc(C(C)(F)F)c2)cc1-c1ccc2c(c1)N1CCOCC1C(CO)C2` (racemic) [Example 60, (rac)-2-(1,1-difluoroethyl)-N-(3-(5-(hydroxymethyl)-1,2,4,4a,5,6-hexahydro-[1,4]oxazino[4,3-a]quinolin-9-yl)-4-methylphenyl)isonicotinamide] gave an IC50 of 19 pM.

Usually IC50 stands for the concentration that gives 50% inhibition. Read a low IC50 as higher potency.
